According to patent publication US7964624B1, “Inhibitors of serine proteases” (priority 2005, dated 2011):
pKi: −log10 of the molar value.

Biological target: T1, full-length hepatitis C viral protein NS3•4A (Hepatitis C virus genotype 1a, UniProt P27958)
T1 construct: hexa-histidine (N); made in house; host or cells: Sf9 insect cells (baculovirus, pVL1392)
Experiment: biochemical
Design: species or system HCV sub-type strain 1a
Settings: Enzyme Assay 2 (HCV NS3 Peptide Cleavage Assay) activity, apparent Ki class

SMILES | pKi
CCC[C@H](NC(=O)[C@@H]1C[C@]2(CC(c3cccc4cccnc34)=NO2)CN1C(=O)[C@@H](NC(=O)OC1CCCC1)C(C)(C)C)C(=O)C(=O)NC [Compound 647] | 6.30 to 7.00
CCC[C@H](NC(=O)[C@@H]1C[C@]2(CC(c3cccc(Cl)c3)=NO2)CN1C(=O)[C@@H](NC(=O)CC1CCCCC1)C(C)(C)C)C(=O)C(=O)N1CC(OC[C@H]2CCCO2)C1 [Compound 238] | < 6.30
CC(C)(C)[C@H](NC(=O)[C@@H]1C[C@H]1c1ccccc1)C(=O)N1C[C@@]2(CC(c3cccc(Cl)c3)=NO2)C[C@H]1C(=O)N[C@@H](CC1CC1)C(=O)C(N)=O [Compound 485] | > 7.00
CCC[C@H](NC(=O)[C@@H]1C[C@]2(CC(c3cccc(Cl)c3F)=NO2)CN1C(=O)[C@@H](NC(=O)CC1CCCCC1)C(C)(C)C)C(=O)C(=O)NC1CC1 [Compound 169] | 6.30 to 7.00
CCC[C@H](NC(=O)[C@@H]1C[C@]2(CC(c3cc(Cl)c(OC)cc3OC)=NO2)CN1C(=O)[C@@H](NC(=O)OC(C)(C)C)C(C)(C)C)C(=O)C(=O)NC1CC1 [Compound 131] | > 7.00
CCC[C@H](NC(=O)[C@@H]1C[C@]2(CC(c3cc(Cl)c(OC)cc3OC)=NO2)CN1C(=O)[C@@H](NC(=O)OC(C)(C)C)C(C)(C)C)C(=O)C(=O)N1CCC1 [Compound 581] | > 7.00
CNC(=O)C(=O)C(CC1CC1)NC(=O)[C@@H]1C[C@]2(CC(c3cc(C)c(OC)c(C)c3)=NO2)CN1C(=O)[C@@H](NC(=O)OC1CCCC1)C(C)(C)C (stereo partly shown) [Compound 768] | 6.30 to 7.00
CCC[C@H](NC(=O)[C@@H]1C[C@]2(CC(c3ccc(F)c(Cl)c3)=NO2)CN1C(=O)[C@@H](NC(=O)OC1CCCC1)C(C)(C)C)C(=O)C(=O)NC1CC1 [Compound 652] | > 7.00
CNC(=O)C(=O)[C@H](CC1CC1)NC(=O)[C@@H]1C[C@]2(CC(c3cccc(Cl)c3)=NO2)CN1C(=O)[C@@H](NC(=O)CC1CCCCC1)C(C)(C)C [Compound 522] | > 7.00
CNC(=O)C(=O)[C@H](CC1CC1)NC(=O)[C@@H]1C[C@]2(CC(c3cccc(Cl)c3)=NO2)CN1C(=O)[C@@H](NC(=O)CC(C)(C)OC)C(C)(C)C [Compound 773] | 6.30 to 7.00
CCC[C@H](NC(=O)[C@@H]1C[C@]2(CC(c3ccc(F)c(Cl)c3)=NO2)CN1C(=O)[C@@H](NC(=O)CC(C)(C)C)C(C)(C)C)C(=O)C(N)=O [Compound 625] | > 7.00
CCC[C@H](NC(=O)[C@@H]1C[C@]2(CC(c3ccc(F)c(Cl)c3)=NO2)CN1C(=O)[C@@H](NC(=O)OC(C)(C)C)C(C)(C)C)C(=O)C(N)=O [Compound 627] | > 7.00
CCC[C@H](NC(=O)[C@@H]1C[C@]2(CC(c3cc(Cl)ccc3OC)=NO2)CN1C(=O)[C@@H](NC(=O)CC1CCCCC1)C(C)(C)C)C(=O)C(=O)NC [Compound 632] | > 7.00
COc1c(C)cc(C2=NO[C@]3(C2)C[C@@H](C(=O)N[C@@H](CC2CC2)C(=O)C(N)=O)N(C(=O)[C@@H](NC(=O)CC2CCCCC2)C(C)(C)C)C3)cc1C [Compound 726] | > 7.00
CCC[C@H](NC(=O)[C@@H]1C[C@]2(CC(c3cccc([N+](=O)[O-])c3)=NO2)CN1C(=O)[C@@H](NC(=O)CC1CCCCC1)C(C)(C)C)C(=O)C(=O)NC1CC1 [Compound 89] | 6.30 to 7.00
CCC[C@H](NC(=O)[C@@H]1C[C@]2(CC(c3cc(C)c(OCC)c(C)c3)=NO2)CN1C(=O)[C@@H](NC(=O)CC1CCCCC1)C(C)(C)C)C(=O)C(=O)NC1CC1 [Compound 513] | > 7.00
CCC[C@H](NC(=O)[C@@H]1C[C@]2(CC(c3cc(Cl)c(OC)cc3C)=NO2)CN1C(=O)[C@@H](NC(=O)CC1CCCCCC1)C(C)(C)C)C(=O)C(=O)NC1CC1 [Compound 606] | 6.30 to 7.00
CCC[C@H](NC(=O)[C@@H]1C[C@]2(CC(c3cc(C)c(OC)c(Cl)c3)=NO2)CN1C(=O)[C@@H](NC(=O)CC1CCCCC1)C(C)(C)C)C(=O)C(N)=O [Compound 640] | > 7.00
CNC(=O)C(=O)[C@H](CC1CCC1)NC(=O)[C@@H]1C[C@]2(CC(c3cccc(Cl)c3)=NO2)CN1C(=O)[C@@H](NC(=O)CC1CCCCC1)C(C)(C)C [Compound 741] | > 7.00
CCC[C@H](NC(=O)[C@@H]1C[C@]2(CC(c3cc(Cl)c(OC)cc3C)=NO2)CN1C(=O)[C@@H](NC(=O)OC(C)(C)C)C(C)(C)C)C(=O)C(=O)NC1CC1 [Compound 628] | 6.30 to 7.00
CCC[C@H](NC(=O)[C@@H]1C[C@]2(CC(c3cc(Cl)c(OC)cc3C)=NO2)CN1C(=O)[C@@H](NC(=O)OC1CCCC1)C(C)(C)C)C(=O)C(=O)NC1CC1 [Compound 666] | > 7.00
CCC[C@H](NC(=O)[C@@H]1C[C@]2(CC(c3cc(Cl)c(OC)cc3C)=NO2)CN1C(=O)[C@@H](NC(=O)OC(C)(C)C)C(C)(C)C)C(=O)C(=O)NC [Compound 630] | 6.30 to 7.00
COc1c(C)cc(C2=NO[C@]3(C2)C[C@@H](C(=O)N[C@@H](CC2CC2)C(=O)C(=O)NC2CC2)N(C(=O)[C@@H](NC(=O)CC2CCCCC2)C(C)(C)C)C3)cc1C [Compound 764] | 6.30 to 7.00
CNC(=O)C(=O)[C@H](CC1CC1)NC(=O)[C@@H]1C[C@@]2(CC(c3nc(-c4ccccc4)no3)=NO2)CN1C(=O)[C@@H](NC(=O)OC1CCCC1)C(C)(C)C [Compound 694] | 6.30 to 7.00
COc1cc(OC)c(C2=NO[C@]3(C2)C[C@@H](C(=O)N[C@@H](CC2CC2)C(=O)C(N)=O)N(C(=O)[C@@H](NC(=O)CC2(C)CCOCC2)C(C)(C)C)C3)cc1Cl [Compound 529] | > 7.00
CCC[C@H](NC(=O)[C@@H]1C[C@]2(CC(c3cccc(Cl)c3)=NO2)CN1C(=O)Cc1ccc(OC(F)(F)F)cc1)C(=O)C(=O)NC1CC1 [Compound 380] | < 6.30
CNC(=O)C(=O)[C@H](CC1CC1)NC(=O)[C@@H]1C[C@]2(CC(c3cccc(Cl)c3)=NO2)CN1C(=O)[C@@H](NC(=O)[C@H]1C[C@@H]1C(C)C)C(C)(C)C [Compound 755] | > 7.00

Same assay, conditions: Enzyme Assay 2, HCV NS3 Peptide Cleavage Assay, apparent Ki

SMILES | pKi
CCC[C@H](NC(=O)[C@@H]1C[C@]2(CC(c3cc(Cl)ccc3OC)=NO2)CN1C(=O)[C@@H](NC(=O)[C@@H]1C[C@H]1c1ccccc1)C(C)(C)C)C(=O)C(=O)NC1CC1 [Compound 968] | > 7.00
COc1ccc(Cl)cc1C1=NO[C@]2(C1)C[C@@H](C(=O)N[C@@H](CC1CC1)C(=O)C(N)=O)N(C(=O)[C@@H](NC(=O)[C@@H]1C[C@H]1c1ccccc1)C(C)(C)C)C2 [Compound 901] | > 7.00
CCC[C@H](NC(=O)[C@@H]1C[C@]2(CC(c3cc(C)c(OCC)c(C)c3)=NO2)CN1C(=O)[C@@H](NC(=O)[C@@H]1C[C@H]1c1ccccn1)C(C)(C)C)C(=O)C(=O)NC1CC1 [Compound 981] | > 7.00
CCC[C@H](NC(=O)[C@@H]1C[C@]2(CC(N3Cc4ccccc4C3)=NO2)CN1C(=O)[C@@H](NC(=O)OC1CCCC1)C(C)(C)C)C(=O)C(=O)NC1CC1 [Compound 904] | > 7.00
CCC[C@H](NC(=O)C1C[C@]2(CC(c3cc(C)c(OC)c(C)c3)=NO2)CN1C(=O)[C@@H](NC(=O)[C@@H]1C[C@H]1c1c[nH]cn1)C(C)(C)C)C(=O)C(=O)NC1CC1 (stereo partly shown) [Compound 907] | 6.30 to 7.00
CCC[C@H](NC(=O)[C@@H]1C[C@]2(CC(c3cc(C)c(OCC)c(C)c3)=NO2)CN1C(=O)[C@@H](NC(=O)[C@@H]1C[C@H]1c1ccc(F)cc1)C(C)(C)C)C(=O)C(=O)NC1CC1 [Compound 994] | > 7.00
CNC(=O)C(=O)[C@H](CC1CC1)NC(=O)[C@@H]1C[C@]2(CC(c3cccc(Cl)c3)=NO2)CN1C(=O)[C@@H](NC(=O)[C@@H]1CC12CCCCC2)C(C)(C)C [Compound 850] | > 7.00
CCOc1c(C)cc(C2=NO[C@]3(C2)C[C@@H](C(=O)N[C@@H](CC2CC2)C(=O)C(=O)NC)N(C(=O)[C@@H](NC(=O)[C@H]2C[C@@H]2c2ccccn2)C(C)(C)C)C3)cc1C [Compound 986] | 6.30 to 7.00
CNC(=O)C(=O)[C@H](CC1CC1)NC(=O)[C@@H]1C[C@]2(CC(c3cccc(Cl)c3)=NO2)CN1C(=O)[C@@H](NC(=O)C1CC1c1ccn(C)n1)C(C)(C)C (stereo partly shown) [Compound 955] | > 7.00
CCC[C@H](NC(=O)[C@@H]1C[C@]2(CC(c3cccc(Cl)c3)=NO2)CN1C(=O)[C@@H](NC(=O)C1(C#N)CC1)C(C)(C)C)C(=O)C(=O)NC1CC1 [Compound 823] | > 7.00
CC(C)(C)[C@H](NC(=O)[C@H]1C[C@@H]1c1ccccc1)C(=O)N1C[C@@]2(CC(c3cccc4cccnc34)=NO2)C[C@H]1C(=O)N[C@@H](CC1CC1)C(=O)C(N)=O [Compound 805] | > 7.00
CCNC(=O)C(=O)[C@H](CC1CC1)NC(=O)[C@@H]1C[C@]2(CC(c3cc(C)c(OC)c(C)c3)=NO2)CN1C(=O)[C@@H](NC(=O)[C@@H]1CC1c1ccccc1)C(C)(C)C (stereo partly shown) [Compound 845] | > 7.00
CCOc1c(C)cc(C2=NO[C@]3(C2)C[C@@H](C(=O)N[C@@H](CC2CC2)C(=O)C(=O)NC)N(C(=O)[C@@H](NC(=O)OC2CCCC2)C(C)(C)C)C3)cc1Cl [Compound 817] | > 7.00
CC(C)(C)[C@H](NC(=O)[C@@H]1C[C@H]1c1ccccc1)C(=O)N1C[C@@]2(CC(c3cccc4cccnc34)=NO2)C[C@H]1C(=O)N[C@@H](CC1CC1)C(=O)C(N)=O [Compound 806] | > 7.00
CNC(=O)C(=O)[C@H](CC1CC1)NC(=O)[C@@H]1C[C@]2(CC(c3cccc(Cl)c3)=NO2)CN1C(=O)[C@@H](NC(=O)[C@H]1C[C@@H]1c1c[nH]cn1)C(C)(C)C [Compound 833] | > 7.00
CCC[C@H](NC(=O)[C@@H]1C[C@]2(CC(c3cccc(Cl)c3)=NO2)CN1C(=O)[C@@H](NC(=O)[C@H]1CC1c1ccccc1)C(C)(C)OC)C(=O)C(=O)NC1CC1 (stereo partly shown) [Compound 960] | > 7.00
CCC[C@H](NC(=O)[C@@H]1C[C@]2(CC(c3cc(C)c(OCC)c(C)c3)=NO2)CN1C(=O)[C@@H](NC(=O)[C@@H]1C[C@H]1C1CCCCC1)C(C)(C)C)C(=O)C(=O)NC [Compound 993] | > 7.00
CCC[C@H](NC(=O)[C@@H]1C[C@]2(CC(c3cc(C)c(OCC)c(C)c3)=NO2)CN1C(=O)[C@@H](NC(=O)CC1CCCCC1)C(C)(C)OC)C(=O)C(=O)NC1CC1 [Compound 956] | > 7.00
CCC[C@H](NC(=O)[C@@H]1C[C@]2(CC(c3cc(C)c(OCC)c(C)c3)=NO2)CN1C(=O)[C@@H](NC(=O)C1C[C@H]1C(C)C)C(C)(C)C)C(=O)C(=O)NC (stereo partly shown) [Compound 992] | > 7.00
